One test addresses T1, XIAP (Homo sapiens, UniProt P98170).
T1 construct: fused on or other part: GST tag at the N-terminus (pGEX4T vectors)
Description: Fluorescence polarization-based competition assay, XIAP. The test is classed as binding. To be noted: FP assay, ki derived from IC50. The gist of the method:
(§1)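 Competition of FITC-labelled probe (2 nM) binding to the BIR domain, protein set at 80% of maximal FP signal; 10-point compound dilutions in 50 mM HEPES pH 7.5, γ-globulin, 2 mM DTT, 1% DMSO, 1 h at room temperature in the dark. IC50 from sigmoidal fit; Ki derived from IC50.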
On the technique in general: Polarisation of emitted light reports the rotation of a fluorescent probe.

For a further test, the target named is T2, c-IAP1 (Homo sapiens, UniProt Q13490).
T2 construct: GST (N); made in house; host or cells: E. coli DH5α
T2 sequence (Q13490 251-363): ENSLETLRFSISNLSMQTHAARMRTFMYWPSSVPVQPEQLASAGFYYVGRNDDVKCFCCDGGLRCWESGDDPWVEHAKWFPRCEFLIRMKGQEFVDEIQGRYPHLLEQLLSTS
Briefly: Fluorescence polarization-based competition assay, c-IAP1. The test is classed as binding. To be noted: FP assay, ki derived from IC50. In outline: as §1

The target of another test is T3, cIAP2 (Homo sapiens, UniProt Q13489).
T3 construct: GST (N); made in house; host or cells: E. coli DH5α
T3 sequence (Q13489 236-349): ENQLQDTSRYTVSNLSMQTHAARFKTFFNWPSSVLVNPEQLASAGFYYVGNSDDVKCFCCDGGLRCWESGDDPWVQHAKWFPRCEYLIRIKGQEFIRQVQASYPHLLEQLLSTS
Briefly: Fluorescence polarization-based competition assay, cIAP2. Format: binding. To be noted: FP assay, ki derived from IC50. On the procedure: Binding of compounds of Formula 1 to target BIR domains was measured using a fluorescence-polarization (FP) assay. Fluorescence-polarization was evaluated using a GENios microplate reader (TECAN) Pro instrument with the excitation filter set at 485 nm and the emission filter set at 535 nm. The final amount of protein used in the assay corresponds to the amount of protein necessary to obtain 80% of the maximum FP value in a P1 or P2 fluorescent (FITC) probe saturation experiment. The compounds potency (IC50) and selectivity, was assessed in the presence of the amount of target protein established, fluorescent probe, and a 10 point serial dilution in assay buffer (50 mM Hepes, pH 7.5, 250 mcg/mL γ-globulin, 2 mM DTT, 1% DMSO) of the selected compounds.
Assays were carried out in duplicate using untreated black 96-well plates (Corning #3915) and a total volume of 100 microliters, containing 25 microliters of fluorescent probe at a final concentration of 2 nM in assay buffer, 25 microliters of diluted compound, 25 microliters of BIR protein into assay buffer and 25 microliters of assay buffer. Buffer only (blank) or probe only in buffer (G-factor) were used as controls for calibration. The plate was incubated at room temperature in the dark for one hour and FP values in millipolarization units (mP) were recorded using Genios Pro FP reader.
The measured FP values (mP) were then plotted against compound concentration, and IC50 values were calculated based on a sigmoidal dose-response (variable-slope) curve fit using GraphPad Prism version 4.02 for Windows, GraphPad Software, San Diego Calif. USA and/or CambridgeSoft BioAssay Enterprise Version 10.1. The IC50 value is the concentration of test compound at which 50% of the tracer was displaced. ki values were derived from the calculated IC50 values as described above and according to the equation described in Nikolovska-Coleska, Z. (2004) Anal Biochem 332, 261-273. The results are presented in Table 2, wherein A=less than 25 nM; B=less than 250 nM; C=less than 1000 nM; and D=greater than 1000 nM.

The subject of test [1] is Colorectal carcinoma HCT116 cells. Briefly: Cell death assay (MTT) in combination with HGS ETR1. The test is classed as cell-based. To be noted: with HGS ETR1 30 ng/ml, 72 hours, read-out: HCT116+ mapatubimap EC50. In outline:
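HCT116 cells (2000/well, McCoy's 5a, 10% FBS) were treated 24 h after plating with compound plus the agonistic TRAIL receptor antibody mapatumumab (ETR1, 30 ng/ml) for 72 hours. Viability was read by MTT. EC50 was the concentration giving 50% survival relative to untreated controls.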

T1 sequence (P98170 246-497 limits assumed): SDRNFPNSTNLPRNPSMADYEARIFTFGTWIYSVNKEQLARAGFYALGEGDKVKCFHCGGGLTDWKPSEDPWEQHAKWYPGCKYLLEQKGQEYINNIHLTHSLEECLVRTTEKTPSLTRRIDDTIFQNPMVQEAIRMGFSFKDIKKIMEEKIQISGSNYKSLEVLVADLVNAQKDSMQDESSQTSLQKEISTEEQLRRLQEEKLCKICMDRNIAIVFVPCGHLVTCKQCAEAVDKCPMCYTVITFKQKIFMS

`CN[C@@H](C)C(=O)N[C@H](C(=O)N1C[C@@H](Oc2ccc(F)cc2)C[C@H]1CN(CCc1ccc(F)cc1)C(=O)c1cn2cccnc2n1)C(C)(C)C` [Compound 65]: the Ki on XIAP, on c-IAP1 and at cIAP2 was less than 25 nM each time. The concentration for a half-maximal effect (EC50) in test [1] was less than 50 nM.
As for `CN[C@@H](C)C(=O)N[C@H](C(=O)N1CCC[C@H]1CN(CCc1ccc(F)cc1)C(=O)c1cn(-c2ccc(F)cc2)cn1)C(C)(C)C` [Compound 66], the Ki at XIAP is less than 250 nM; at c-IAP1, less than 25 nM; at cIAP2, less than 25 nM. Besides, the 50% effective concentration (EC50) in test [1] is less than 50 nM.
On to `CN[C@@H](C)C(=O)N[C@H](C(=O)N1CCC[C@H]1CN(CCc1ccc(F)cc1)C(=O)c1ncc(-c2ccccc2)[nH]1)C(C)(C)C` [Compound 109], for which the Ki on XIAP was less than 250 nM; on c-IAP1, less than 25 nM; at cIAP2 it was less than 25 nM. In test [1], the concentration giving a half-maximal response (EC50) was less than 50 nM.
Regarding `CN[C@@H](C)C(=O)N[C@H](C(=O)N1CCC[C@H]1CN(CCc1ccc(F)cc1)C(=O)c1cn2c(n1)CCC2)C1CCCCC1` [Compound 113], the inhibition constant (Ki) at XIAP is less than 250 nM; at c-IAP1, less than 25 nM; at cIAP2, less than 25 nM. In addition, the EC50 in test [1] is less than 50 nM.
Regarding `CN[C@@H](C)C(=O)N[C@H](C(=O)N1C[C@@H](Oc2ccc(F)cc2)C[C@H]1CN(CCc1ccc(F)cc1)C(=O)c1cn2cccnc2n1)[C@@H](C)OC` [Compound 100], the inhibition constant (Ki) was less than 250 nM on XIAP, less than 25 nM at c-IAP1 and less than 25 nM at cIAP2. In test [1], the 50% effective concentration (EC50) was less than 250 nM.
Consider `CN[C@@H](C)C(=O)N[C@H](C(=O)N1C[C@@H](Oc2ccncc2)C[C@H]1CN(CCc1ccc(F)cc1)C(=O)c1cn2ccccc2n1)C(C)(C)C` [Compound 106], for which the Ki on XIAP is less than 250 nM; at c-IAP1 it was less than 25 nM; at cIAP2 it was less than 25 nM. The EC50 in test [1] was less than 50 nM.
As to `CN[C@@H](C)C(=O)N[C@H](C(=O)N1CCC[C@H]1CN(CCc1ccc(F)cc1)C(=O)c1cn(C)nn1)C1CCCCC1` [Compound 110], the Ki on XIAP is less than 250 nM; on c-IAP1, less than 25 nM; on cIAP2 it was less than 25 nM. In addition, the EC50 in test [1] is less than 50 nM.
Regarding `CN[C@@H](C)C(=O)N[C@H](C(=O)N1CCC[C@H]1CN(CCc1ccc(F)cc1)C(=O)c1nccn1C)[C@@H](C)OC` [Compound 85], the Ki is less than 1000 nM on XIAP, less than 25 nM at c-IAP1 and less than 25 nM on cIAP2. In addition, the concentration for a half-maximal effect (EC50) in test [1] was less than 50 nM.
With `CN[C@@H](C)C(=O)N[C@H](C(=O)N1CCC[C@H]1CN(CCc1ccc(F)cc1)C(=O)c1cn2ccccc2n1)[C@@H](C)OC` [Compound 58], the results for the inhibition constant (Ki) on XIAP, at c-IAP1 and at cIAP2 were less than 250 nM, less than 25 nM and less than 25 nM, respectively. Moreover, the EC50 in test [1] is less than 50 nM.
Turning to `CN[C@@H](C)C(=O)N[C@H](C(=O)N1C[C@@H](NC(=O)c2ccccc2)C[C@H]1CN(CCc1ccc(F)cc1)C(=O)c1cn2c(n1)CCC2)C(C)(C)C` [Compound 89], the values for the Ki at XIAP, at c-IAP1 and at cIAP2 were less than 250 nM, less than 25 nM and less than 25 nM, respectively. Also, the EC50 in test [1] is less than 50 nM.
On to `CCN[C@@H](C)C(=O)N[C@H](C(=O)N1CCC[C@H]1CN(CCc1ccccc1)C(=O)c1cn2cccnc2n1)C(C)(C)C` [Compound 14], for which the Ki at XIAP is less than 1000 nM; at c-IAP1, less than 25 nM; at cIAP2, less than 250 nM. Moreover, in test [1], the EC50 is less than 250 nM.
Consider `CN[C@@H](C)C(=O)N[C@H](C(=O)N1C[C@@H](Oc2ccc(F)cc2)C[C@H]1CN(CCc1ccc(F)cc1)C(=O)c1cn2c(n1)CCC2)[C@@H](C)OC` [Compound 114], for which the inhibition constant (Ki) on XIAP, on c-IAP1 and on cIAP2 was less than 25 nM in each case. For the same compound, the EC50 in test [1] is less than 50 nM.
Turning to `CN[C@@H](C)C(=O)N[C@H](C(=O)N1C[C@@H](NC(=O)c2ccccc2)C[C@H]1CN(CCc1ccc(F)cc1)C(=O)c1cn2cc(F)cnc2n1)C(C)(C)C` [Compound 112], the Ki was less than 250 nM at XIAP, less than 25 nM at c-IAP1 and less than 25 nM on cIAP2. For the same compound, in test [1], the half-maximal effective concentration (EC50) was less than 250 nM.
Take `CN[C@@H](C)C(=O)N[C@H](C(=O)N1C[C@@H](Oc2ccc(OC(F)(F)F)cc2)C[C@H]1CN(CCc1ccc(F)cc1)C(=O)c1cn2ccccc2n1)C(C)(C)C` [Compound 111]: the Ki on XIAP, at c-IAP1 and at cIAP2 was less than 25 nM each time. In addition, the 50% effective concentration (EC50) in test [1] is less than 50 nM.
As for `CN[C@@H](C)C(=O)N[C@H](C(=O)N1C[C@@H](Oc2ccc(OC(F)(F)F)cc2)C[C@H]1CN(CCc1ccc(F)cc1)C(=O)c1cn(C)cn1)C(C)(C)C` [Compound 97], the inhibition constant Ki at XIAP was less than 250 nM; on c-IAP1, less than 25 nM; at cIAP2, less than 25 nM. Also, the EC50 in test [1] is less than 50 nM.
On to `CN[C@@H](C)C(=O)N[C@H](C(=O)N1CCC[C@H]1CN(CCc1ccc(F)cc1)C(=O)c1cc(-c2ccccc2)on1)C(C)(C)C` [Compound 115], for which the Ki was less than 250 nM on XIAP, less than 25 nM at c-IAP1 and less than 25 nM at cIAP2. Further, in test [1], the EC50 is less than 250 nM.
Regarding `CN[C@@H](C)C(=O)N[C@H](C(=O)N1CCC[C@H]1CN(CCc1ccc(F)cc1)C(=O)c1cnn(-c2ccccc2)c1)C(C)(C)C` [Compound 90], the results for the Ki at XIAP, on c-IAP1 and on cIAP2 were less than 250 nM, less than 25 nM and less than 25 nM, respectively. Also, the EC50 in test [1] is less than 250 nM.
For `CN[C@@H](C)C(=O)N[C@H](C(=O)N1C[C@@H](NC(=O)OCc2ccccc2)C[C@H]1CN(CCc1ccc(F)cc1)C(=O)c1cn2cccnc2n1)C(C)(C)C` [Compound 44], the inhibition constant Ki at XIAP was less than 250 nM; at c-IAP1 it was less than 25 nM; on cIAP2, less than 25 nM. Moreover, the EC50 in test [1] is less than 250 nM.
Consider `CN[C@@H](C)C(=O)N[C@H](C(=O)N1C[C@@H](NC(=O)c2ccccc2)C[C@H]1CN(CCc1ccc(F)cc1)C(=O)c1cn(-c2ccc(F)cc2)cn1)C(C)(C)C` [Compound 87], for which the inhibition constant (Ki) is less than 250 nM on XIAP, less than 25 nM at c-IAP1 and less than 25 nM at cIAP2. In addition, in test [1], the EC50 is less than 250 nM.
For the compound `CN[C@@H](C)C(=O)N[C@H](C(=O)N1CCC[C@H]1CN(CCc1ccc(F)cc1)C(=O)c1cn(C(C)C)cn1)C(C)(C)C` [Compound 94], the Ki is less than 250 nM on XIAP, less than 25 nM on c-IAP1 and less than 25 nM at cIAP2. The concentration for a half-maximal effect (EC50) in test [1] was less than 50 nM.
In the case of `CN[C@@H](C)C(=O)N[C@H](C(=O)N1CCC[C@H]1CN(CCc1ccc(F)cc1)C(=O)c1cn2cccnc2n1)[C@@H](C)OC` [Compound 36], the figures for the inhibition constant Ki at XIAP, at c-IAP1 and at cIAP2 were less than 250 nM, less than 25 nM and less than 25 nM, respectively. The EC50 in test [1] is less than 250 nM.
On to `CN[C@@H](C)C(=O)N[C@H](C(=O)N1C[C@@H](Oc2ccc(F)cc2)C[C@H]1CN(CCc1ccc(F)cc1)C(=O)c1cn2c(n1)CCC2)C(C)(C)C` [Compound 83], for which the Ki at XIAP, at c-IAP1 and on cIAP2 was less than 25 nM in each case. In addition, in test [1], the 50% effective concentration (EC50) is less than 50 nM.
Consider `CN[C@@H](C)C(=O)N[C@H](C(=O)N1CCC[C@H]1CN(CCc1ccc(F)cc1)C(=O)c1cn(-c2ccccc2)cn1)C(C)(C)C` [Compound 61], for which the results for the inhibitory constant (Ki) on XIAP, at c-IAP1 and at cIAP2 were less than 250 nM, less than 25 nM and less than 25 nM, respectively. In addition, the EC50 in test [1] was less than 250 nM.
Turning to `CN[C@@H](C)C(=O)N[C@H](C(=O)N1C[C@@H](Oc2ccc(OC)cc2)C[C@H]1CN(CCc1ccc(F)cc1)C(=O)c1cn(C)cn1)C(C)(C)C` [Compound 96], the Ki is less than 250 nM on XIAP, less than 25 nM on c-IAP1 and less than 25 nM at cIAP2. In addition, in test [1], the concentration giving a half-maximal response (EC50) was less than 50 nM.
In the case of `CCO[C@H](C)[C@H](NC(=O)[C@H](C)NC)C(=O)N1CCC[C@H]1CN(CCc1ccc(F)cc1)C(=O)c1cn(-c2ccc(F)cc2)cn1` [Compound 79], the inhibitory constant (Ki) at XIAP is less than 250 nM; at c-IAP1, less than 25 nM; at cIAP2, less than 25 nM. In test [1], the EC50 is less than 50 nM.

For orientation: Ki means the equilibrium dissociation constant of an inhibitor or competing ligand from its target. Broadly, the EC50 is the concentration that produces a half-maximal response.

These data come from US9284350B2, “IAP BIR domain binding compounds” (Pharmascience Inc., priority 2010, dated 2016).
